Laboratory results as given in US4868321A, “Isothiocyanate intermediates” (FMC Corporation, priority 1988, dated 1989).

How the values were obtained:
Assay type in all cases: in vivo
Velvetleaf [1] = assay: Postemergence Herbicidal Activity, Velvetleaf; details: Abutilon theophrasti, post-emergence; for pest or weed control at 1000 g/ha: 1.0 kg/ha
Outline: (§1)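 Read-out is percent control (% C) at application rates expressed in kilograms per hectare. Compounds were generally delivered in a 50/50 acetone/water solution, either before emergence or onto emerged plants.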

Barnyardgrass [2] = assay: Preemergence Herbicidal Activity, Barnyardgrass; details: Echinochloa crus-galli, pre-emergence; for pest or weed control at 1000 g/ha: 1.0 kg/ha
Outline: (§2)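 Test compounds are dosed on a per-area basis (kg/ha); plant response is reported as % C.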

Rice [3] = assay: Postemergence Herbicidal Activity, Rice; details: Oryza sativa, post-emergence; for plant injury at 1000 g/ha: 1.0 kg/ha
Outline: (§3)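 Application rate is expressed per hectare in kilograms. Values are percent control.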

Rice [4] = assay: Preemergence Herbicidal Activity, Rice; details: Oryza sativa, pre-emergence; for plant injury at 1000 g/ha: 1.0 kg/ha
Outline: as §3

Velvetleaf [5] = assay: Preemergence Herbicidal Activity, Velvetleaf; details: Abutilon theophrasti, pre-emergence; for pest or weed control at 1000 g/ha: 1.0 kg/ha
Outline: as §1

Field Bindweed [6] = assay: Postemergence Herbicidal Activity, Field Bindweed; details: post-emergence; for pest or weed control at 1000 g/ha: 1.0 kg/ha
Outline: as §1

Field Bindweed [7] = assay: Preemergence Herbicidal Activity, Field Bindweed; details: pre-emergence; for pest or weed control at 1000 g/ha: 1.0 kg/ha
Outline: as §1

Soybean [8] = assay: Preemergence Herbicidal Activity, Soybean; details: Glycine max, pre-emergence; for plant injury at 1000 g/ha: 1.0 kg/ha
Outline: as §3

Green Foxtail [9] = assay: Preemergence Herbicidal Activity, Green Foxtail; details: Setaria viridis, pre-emergence; for pest or weed control at 1000 g/ha: 1.0 kg/ha
Outline: as §2

Wheat [10] = assay: Postemergence Herbicidal Activity, Wheat; details: Triticum aestivum, post-emergence; for plant injury at 1000 g/ha: 1.0 kg/ha
Outline: as §3

Morningglory [11] = assay: Postemergence Herbicidal Activity, Morningglory; details: Ipomoea, post-emergence; for pest or weed control at 1000 g/ha: 1.0 kg/ha
Outline: as §1

Soybean [12] = assay: Postemergence Herbicidal Activity, Soybean; details: Glycine max, post-emergence; for plant injury at 1000 g/ha: 1.0 kg/ha
Outline: as §3

Green Foxtail [13] = assay: Postemergence Herbicidal Activity, Green Foxtail; details: Setaria viridis, post-emergence; for pest or weed control at 1000 g/ha: 1.0 kg/ha
Outline: as §2

Wheat [14] = assay: Preemergence Herbicidal Activity, Wheat; details: Triticum aestivum, pre-emergence; for plant injury at 1000 g/ha: 1.0 kg/ha
Outline: as §3

Morningglory [15] = assay: Preemergence Herbicidal Activity, Morningglory; details: Ipomoea, pre-emergence; for pest or weed control at 1000 g/ha: 1.0 kg/ha
Outline: as §1

broad leaf weeds = assay: preemergence use against broad leaf weeds; details: with crops such as corn, rice, wheat and soybeans
Johnsongrass [16] = assay: Preemergence Herbicidal Activity, Johnsongrass; details: Sorghum halepense, pre-emergence; for pest or weed control at 1000 g/ha: 1.0 kg/ha
Outline: as §2

Field Corn [17] = assay: Preemergence Herbicidal Activity, Field Corn; details: Zea mays, pre-emergence; for plant injury at 1000 g/ha: 1.0 kg/ha
Outline: as §3

Field Corn [18] = assay: Postemergence Herbicidal Activity, Field Corn; details: Zea mays, post-emergence; for plant injury at 1000 g/ha: 1.0 kg/ha
Outline: as §3

Johnsongrass [19] = assay: Postemergence Herbicidal Activity, Johnsongrass; details: Sorghum halepense, post-emergence; for pest or weed control at 1000 g/ha: 1.0 kg/ha
Outline: as §2

Cotton [20] = assay: Postemergence Herbicidal Activity, Cotton; details: Gossypium hirsutum, post-emergence; for plant injury at 1000 g/ha: 1.0 kg/ha
Outline: as §1

Cotton [21] = assay: Preemergence Herbicidal Activity, Cotton; details: Gossypium hirsutum, pre-emergence; for plant injury at 1000 g/ha: 1.0 kg/ha
Outline: as §1

Barnyardgrass [22] = assay: Postemergence Herbicidal Activity, Barnyardgrass; details: Echinochloa crus-galli, post-emergence; for pest or weed control at 1000 g/ha: 1.0 kg/ha
Outline: as §2

How did the pest or weed control at 250 g/ha (Velvetleaf [1]; 0.25 kg/ha) turn out when `CCS(=O)(=O)Nc1cc(-n2nnn(CCCF)c2=O)c(F)cc1Br` [Compound 34, 1-[4-Bromo-2-fluoro-5-(N--ethylsulfonylamino)phenyl]-4,5-dihydro-] was run?
Its pest or weed control at 250 g/ha is 100%.

What about the pest or weed control at 250 g/ha (Barnyardgrass [2]; 0.25 kg/ha) of the same molecule?
The pest or weed control at 250 g/ha was 95%.

What about the plant injury at 250 g/ha (Rice [3]; 0.25 kg/ha) of the same molecule?
Its plant injury at 250 g/ha is 70%.

What about the plant injury at 250 g/ha (Rice [4]; 0.25 kg/ha) of the same molecule?
Its plant injury at 250 g/ha is 60%.

And the pest or weed control at 250 g/ha (Velvetleaf [5]; 0.25 kg/ha)?
Its pest or weed control at 250 g/ha is 100%.

What about the pest or weed control at 250 g/ha (Field Bindweed [6]; 0.25 kg/ha) of the same molecule?
Its pest or weed control at 250 g/ha is 100%.

And the pest or weed control at 250 g/ha (Field Bindweed [7]; 0.25 kg/ha)?
The pest or weed control at 250 g/ha was 100%.

What about the plant injury at 250 g/ha (Soybean [8]; 0.25 kg/ha) of the same molecule?
The plant injury at 250 g/ha was 20%.

And the pest or weed control at 250 g/ha (Green Foxtail [9]; 0.25 kg/ha)?
The pest or weed control at 250 g/ha was 70%.

And the plant injury at 250 g/ha (Wheat [10]; 0.25 kg/ha)?
The plant injury at 250 g/ha was 40%.

What about the pest or weed control at 250 g/ha (Morningglory [11]; 0.25 kg/ha) of the same molecule?
The pest or weed control at 250 g/ha was 100%.

And the plant injury at 250 g/ha (Soybean [12]; 0.25 kg/ha)?
The plant injury at 250 g/ha was 70%.

What about the pest or weed control at 250 g/ha (Green Foxtail [13]; 0.25 kg/ha) of the same molecule?
Its pest or weed control at 250 g/ha is 90%.

What about the plant injury at 250 g/ha (Wheat [14]; 0.25 kg/ha) of the same molecule?
Its plant injury at 250 g/ha is 0%.

And the pest or weed control at 250 g/ha (Morningglory [15]; 0.25 kg/ha)?
The pest or weed control at 250 g/ha was 100%.

What about the “usefulness preemergently against broad leaf weeds” value (broad leaf weeds) of the same molecule?
Its value is “particularly useful”.

What about the pest or weed control at 250 g/ha (Johnsongrass [16]; 0.25 kg/ha) of the same molecule?
The pest or weed control at 250 g/ha was 50%.

What about the plant injury at 250 g/ha (Field Corn [17]; 0.25 kg/ha) of the same molecule?
The plant injury at 250 g/ha was 60%.

And the plant injury at 250 g/ha (Field Corn [18]; 0.25 kg/ha)?
The plant injury at 250 g/ha was 40%.

What about the pest or weed control at 250 g/ha (Johnsongrass [19]; 0.25 kg/ha) of the same molecule?
The pest or weed control at 250 g/ha was 50%.

And the plant injury at 250 g/ha (Cotton [20]; 0.25 kg/ha)?
The plant injury at 250 g/ha was 100%.

And the plant injury at 250 g/ha (Cotton [21]; 0.25 kg/ha)?
The plant injury at 250 g/ha was 95%.

And the pest or weed control at 250 g/ha (Barnyardgrass [22]; 0.25 kg/ha)?
The pest or weed control at 250 g/ha was 70%.

Which pest or weed control at 1000 g/ha (Velvetleaf [1]) does the source give for `CS(=O)(=O)Nc1cc(-n2nnn(CCCF)c2=O)c(Cl)cc1F` [Compound 38, 1-[2-Chloro-4-fluoro-5-(N--methylsulfonylamino)phenyl]-4,5-dihydro-4-(3-fluoropropyl)-5H--tetrazol-5-one] here?
Its pest or weed control at 1000 g/ha is 100%.

What about the pest or weed control at 1000 g/ha (Barnyardgrass [2]) of the same molecule?
The pest or weed control at 1000 g/ha was 80%.

And the plant injury at 1000 g/ha (Rice [3])?
The plant injury at 1000 g/ha was 20%.

What about the plant injury at 1000 g/ha (Rice [4]) of the same molecule?
Its plant injury at 1000 g/ha is 40%.

And the pest or weed control at 1000 g/ha (Velvetleaf [5])?
Its pest or weed control at 1000 g/ha is 100%.

What about the pest or weed control at 1000 g/ha (Field Bindweed [6]) of the same molecule?
The pest or weed control at 1000 g/ha was 100%.

And the pest or weed control at 1000 g/ha (Field Bindweed [7])?
The pest or weed control at 1000 g/ha was 95%.

And the plant injury at 1000 g/ha (Soybean [8])?
Its plant injury at 1000 g/ha is 50%.

And the pest or weed control at 1000 g/ha (Green Foxtail [9])?
Its pest or weed control at 1000 g/ha is 80%.

And the plant injury at 1000 g/ha (Wheat [10])?
Its plant injury at 1000 g/ha is 50%.

And the pest or weed control at 1000 g/ha (Morningglory [11])?
The pest or weed control at 1000 g/ha was 100%.

What about the plant injury at 1000 g/ha (Soybean [12]) of the same molecule?
The plant injury at 1000 g/ha was 90%.

What about the pest or weed control at 1000 g/ha (Green Foxtail [13]) of the same molecule?
Its pest or weed control at 1000 g/ha is 80%.

What about the plant injury at 1000 g/ha (Wheat [14]) of the same molecule?
Its plant injury at 1000 g/ha is 10%.

And the pest or weed control at 1000 g/ha (Morningglory [15])?
The pest or weed control at 1000 g/ha was 100%.

What about the pest or weed control at 1000 g/ha (Johnsongrass [16]) of the same molecule?
Its pest or weed control at 1000 g/ha is 40%.

And the plant injury at 1000 g/ha (Field Corn [17])?
Its plant injury at 1000 g/ha is 10%.

And the plant injury at 1000 g/ha (Field Corn [18])?
The plant injury at 1000 g/ha was 50%.

And the pest or weed control at 1000 g/ha (Johnsongrass [19])?
Its pest or weed control at 1000 g/ha is 80%.

What about the plant injury at 1000 g/ha (Cotton [20]) of the same molecule?
The plant injury at 1000 g/ha was 95%.

And the plant injury at 1000 g/ha (Cotton [21])?
Its plant injury at 1000 g/ha is 70%.

And the pest or weed control at 1000 g/ha (Barnyardgrass [22])?
Its pest or weed control at 1000 g/ha is 50%.

Which pest or weed control at 1000 g/ha (Velvetleaf [1]) does the source give for `CCS(=O)(=O)Nc1cc(-n2nnn(CCCF)c2=O)c(Cl)cc1F` [Compound 39, 1-[2-Chloro-4-fluoro-5-(N--ethylsulfonylamino)phenyl]-4,5-dihydro-4-(3-fluoropropyl)-5H--tetrazol-5-one] here?
Its pest or weed control at 1000 g/ha is 100%.

And the pest or weed control at 1000 g/ha (Barnyardgrass [2])?
The pest or weed control at 1000 g/ha was 60%.

What about the plant injury at 1000 g/ha (Rice [3]) of the same molecule?
Its plant injury at 1000 g/ha is 20%.

And the plant injury at 1000 g/ha (Rice [4])?
The plant injury at 1000 g/ha was 10%.

What about the pest or weed control at 1000 g/ha (Velvetleaf [5]) of the same molecule?
The pest or weed control at 1000 g/ha was 100%.

What about the pest or weed control at 1000 g/ha (Field Bindweed [6]) of the same molecule?
Its pest or weed control at 1000 g/ha is 100%.

And the pest or weed control at 1000 g/ha (Field Bindweed [7])?
The pest or weed control at 1000 g/ha was 70%.

And the plant injury at 1000 g/ha (Soybean [8])?
The plant injury at 1000 g/ha was 10%.

What about the pest or weed control at 1000 g/ha (Green Foxtail [9]) of the same molecule?
Its pest or weed control at 1000 g/ha is 50%.

What about the plant injury at 1000 g/ha (Wheat [10]) of the same molecule?
Its plant injury at 1000 g/ha is 30%.

What about the pest or weed control at 1000 g/ha (Morningglory [11]) of the same molecule?
Its pest or weed control at 1000 g/ha is 100%.

What about the plant injury at 1000 g/ha (Soybean [12]) of the same molecule?
Its plant injury at 1000 g/ha is 95%.

What about the pest or weed control at 1000 g/ha (Green Foxtail [13]) of the same molecule?
Its pest or weed control at 1000 g/ha is 50%.

And the plant injury at 1000 g/ha (Wheat [14])?
The plant injury at 1000 g/ha was 20%.

And the pest or weed control at 1000 g/ha (Morningglory [15])?
Its pest or weed control at 1000 g/ha is 100%.

What about the pest or weed control at 1000 g/ha (Johnsongrass [16]) of the same molecule?
The pest or weed control at 1000 g/ha was 10%.

And the plant injury at 1000 g/ha (Field Corn [17])?
The plant injury at 1000 g/ha was 70%.

What about the plant injury at 1000 g/ha (Field Corn [18]) of the same molecule?
The plant injury at 1000 g/ha was 50%.

And the pest or weed control at 1000 g/ha (Johnsongrass [19])?
Its pest or weed control at 1000 g/ha is 50%.

And the plant injury at 1000 g/ha (Cotton [20])?
The plant injury at 1000 g/ha was 100%.

What about the plant injury at 1000 g/ha (Cotton [21]) of the same molecule?
Its plant injury at 1000 g/ha is 50%.

What about the pest or weed control at 1000 g/ha (Barnyardgrass [22]) of the same molecule?
The pest or weed control at 1000 g/ha was 50%.
